# Source: patent publication EP2649091B1, “IMMUNE RESTRICTED PEPTIDES WITH INCREASED EFFICACY” (Stichting Het Nederlands Kanker Instituut, priority 2010, dated 2012)
# ALG = not defined here; PHG = not defined here
# Experiments:
# [1] = target: HLA-A0201 (Homo sapiens, UniProt P04439, D140Y/D185E/D98H/E176V/E277Q/G131W/G231S/I119V/I121R/I166T/I218V/L300P/L318F/N151K/N90K/P208A/P217A/Q86G/Q94H/R138H/R169H/T345S); format: binding
# [2] = test system: HLA-A2::Mart-1(26-35) reactive T cells stimulated by T2 cells; assay: T cell activation time course assay, IFNγ production (FACS), Mart-1 epitope; format: cell-based; conditions: for % CD8+ T cells producing IFN-γ 0H / Geometric mean IFN-γ in arbitrary fluorescence units 0H: time point 0H (basal); for % CD8+ T cells producing IFN-γ 2H / Geometric mean IFN-γ in arbitrary fluorescence units 2H: time point 2H; for % CD8+ T cells producing IFN-γ 4H / Geometric mean IFN-γ in arbitrary fluorescence units 4H: time point 4H; for % CD8+ T cells producing IFN-γ 24H / Geometric mean IFN-γ in arbitrary fluorescence units 24H: time point 24H; for % CD8+ T cells producing IFN-γ 24H / Geometric mean IFN-γ in arbitrary fluorescence units 24H / % CD8+ T cells producing IFN-γ 48H / Geometric mean IFN-γ in arbitrary fluorescence units 48H: free peptide washed away; for % CD8+ T cells producing IFN-γ 48H / Geometric mean IFN-γ in arbitrary fluorescence units 48H: time point 48H
# [3] = test system: SVYDFFVWL (TRP-2 180-188) reactive T cells; assay: T cell activation time course assay, IFNγ production (FACS), TRP-2 epitope; conditions: for % CD8+ T cells producing IFN-γ peptide concentrations in picomolar 24H 0.5 / Geometric mean IFN-γ in arbitrary fluorescence units peptide concentrations in picomolar 24H 0.5 / % CD8+ T cells producing IFN-γ peptide concentrations in picomolar 48H 0.5 / Geometric mean IFN-γ in arbitrary fluorescence units peptide concentrations in picomolar 48H 0.5: peptide 0.5 pM; for % CD8+ T cells producing IFN-γ peptide concentrations in picomolar 24H 50 / % CD8+ T cells producing IFN-γ peptide concentrations in picomolar 48H 50 / Geometric mean IFN-γ in arbitrary fluorescence units peptide concentrations in picomolar 24H 50 / Geometric mean IFN-γ in arbitrary fluorescence units peptide concentrations in picomolar 48H 50: peptide 50 pM; for % CD8+ T cells producing IFN-γ peptide concentrations in picomolar 24H 5·10^3 / Geometric mean IFN-γ in arbitrary fluorescence units peptide concentrations in picomolar 24H 5·10^3 / % CD8+ T cells producing IFN-γ peptide concentrations in picomolar 48H 5·10^3 / Geometric mean IFN-γ in arbitrary fluorescence units peptide concentrations in picomolar 48H 5·10^3: peptide 5·10^3 pM
substance,measurement,setting,value
E[2-AOC]AGIGI[4FPHE]T[OM-HS],% inhibition at T=4H and T=24H FP 4h,[1],78%
same,% inhibition at T=4H and T=24H FP 24h,[1],66%
same,IC50 Ratio,[1],1.9
[3-PYRA]MYSDFHFI,% inhibition at T=4H and T=24H FP 4H,[1],79%
same,% inhibition at T=4H and T=24H FP 24H,[1],76%
[CSCF3][2-AOC]YDFFVWL,% inhibition at T=4H and T=24H FP 4H,[1],91%
same,% inhibition at T=4H and T=24H FP 24H,[1],79%
[CSME]AAGIGI[4-FPHE]TV,% inhibition at T=4H and T=24H FP 4h,[1],63%
same,% inhibition at T=4H and T=24H FP 24h,[1],58%
[CSME][2-AOC]AGIGILTV,% CD8+ T cells producing IFN-γ 0H,[2]; peptide 0.5 pM,0%
same,Geometric mean IFN-γ in arbitrary fluorescence units 0H,[2]; peptide 0.5 pM,101 arbitrary fluorescence units
same,% CD8+ T cells producing IFN-γ 2H,[2]; peptide 0.5 pM,27%
same,Geometric mean IFN-γ in arbitrary fluorescence units 2H,[2]; peptide 0.5 pM,219 arbitrary fluorescence units
same,% CD8+ T cells producing IFN-γ 4H,[2]; peptide 0.5 pM,29%
same,Geometric mean IFN-γ in arbitrary fluorescence units 4H,[2]; peptide 0.5 pM,368 arbitrary fluorescence units
same,% CD8+ T cells producing IFN-γ 24H,[2]; peptide 0.5 pM,18%
same,Geometric mean IFN-γ in arbitrary fluorescence units 24H,[2]; peptide 0.5 pM,167 arbitrary fluorescence units
same,% CD8+ T cells producing IFN-γ 48H,[2]; peptide 0.5 pM,7%
same,Geometric mean IFN-γ in arbitrary fluorescence units 48H,[2]; peptide 0.5 pM,119 arbitrary fluorescence units
same,% CD8+ T cells producing IFN-γ 0H,[2]; peptide 50 pM,0%
same,Geometric mean IFN-γ in arbitrary fluorescence units 0H,[2]; peptide 50 pM,111 arbitrary fluorescence units
same,% CD8+ T cells producing IFN-γ 2H,[2]; peptide 50 pM,28%
same,Geometric mean IFN-γ in arbitrary fluorescence units 2H,[2]; peptide 50 pM,249 arbitrary fluorescence units
same,% CD8+ T cells producing IFN-γ 4H,[2]; peptide 50 pM,31%
same,Geometric mean IFN-γ in arbitrary fluorescence units 4H,[2]; peptide 50 pM,563 arbitrary fluorescence units
same,% CD8+ T cells producing IFN-γ 24H,[2]; peptide 50 pM,27%
same,Geometric mean IFN-γ in arbitrary fluorescence units 24H,[2]; peptide 50 pM,397 arbitrary fluorescence units
same,% CD8+ T cells producing IFN-γ 48H,[2]; peptide 50 pM,20%
same,Geometric mean IFN-γ in arbitrary fluorescence units 48H,[2]; peptide 50 pM,288 arbitrary fluorescence units
[CSME][2-AOC]AGIGILT[PRG],% inhibition at T=4H and T=24H FP 4h,[1],72%
same,% inhibition at T=4H and T=24H FP 24h,[1],70%
same,IC50 Ratio,[1],14.8
[CSME][2-AOC]KDVEERV,% inhibition at T=4H and T=24H FP 4h,[1],60%
same,% inhibition at T=4H and T=24H FP 24h,[1],56%
[CSME][2-AOC]YDFFVWL,% inhibition at T=4H and T=24H FP 4H,[1],88%
same,% inhibition at T=4H and T=24H FP 24H,[1],76%
same,% inhibition at T=4H and T=24H FP 4h,[1],88%
same,% inhibition at T=4H and T=24H FP 24h,[1],76%
same,% CD8+ T cells producing IFN-γ peptide concentrations in picomolar 24H 0.5,[3],1%
same,Geometric mean IFN-γ in arbitrary fluorescence units peptide concentrations in picomolar 24H 0.5,[3],71 arbitrary fluorescence units
same,% CD8+ T cells producing IFN-γ peptide concentrations in picomolar 24H 50,[3],20%
same,% CD8+ T cells producing IFN-γ peptide concentrations in picomolar 24H 5·10^3,[3],30%
same,Geometric mean IFN-γ in arbitrary fluorescence units peptide concentrations in picomolar 24H 5·10^3,[3],264 arbitrary fluorescence units
same,% CD8+ T cells producing IFN-γ peptide concentrations in picomolar 48H 0.5,[3],0%
same,Geometric mean IFN-γ in arbitrary fluorescence units peptide concentrations in picomolar 48H 0.5,[3],68 arbitrary fluorescence units
same,% CD8+ T cells producing IFN-γ peptide concentrations in picomolar 48H 50,[3],5%
same,% CD8+ T cells producing IFN-γ peptide concentrations in picomolar 48H 5·10^3,[3],33%
same,Geometric mean IFN-γ in arbitrary fluorescence units peptide concentrations in picomolar 48H 5·10^3,[3],224 arbitrary fluorescence units
[CSME][2-AOC]YDFFVW[PRG],% inhibition at T=4H and T=24H FP 4h,[1],98%
same,% inhibition at T=4H and T=24H FP 24h,[1],89%
same,% CD8+ T cells producing IFN-γ peptide concentrations in picomolar 24H 0.5,[3],0%
same,Geometric mean IFN-γ in arbitrary fluorescence units peptide concentrations in picomolar 24H 0.5,[3],67 arbitrary fluorescence units
same,% CD8+ T cells producing IFN-γ peptide concentrations in picomolar 24H 50,[3],1%
same,Geometric mean IFN-γ in arbitrary fluorescence units peptide concentrations in picomolar 24H 50,[3],73 arbitrary fluorescence units
same,% CD8+ T cells producing IFN-γ peptide concentrations in picomolar 24H 5·10^3,[3],7%
same,Geometric mean IFN-γ in arbitrary fluorescence units peptide concentrations in picomolar 24H 5·10^3,[3],84 arbitrary fluorescence units
same,% CD8+ T cells producing IFN-γ peptide concentrations in picomolar 48H 0.5,[3],0%
same,Geometric mean IFN-γ in arbitrary fluorescence units peptide concentrations in picomolar 48H 0.5,[3],67 arbitrary fluorescence units
same,% CD8+ T cells producing IFN-γ peptide concentrations in picomolar 48H 50,[3],0%
same,Geometric mean IFN-γ in arbitrary fluorescence units peptide concentrations in picomolar 48H 50,[3],6 arbitrary fluorescence units
same,% CD8+ T cells producing IFN-γ peptide concentrations in picomolar 48H 5·10^3,[3],0%
same,Geometric mean IFN-γ in arbitrary fluorescence units peptide concentrations in picomolar 48H 5·10^3,[3],72 arbitrary fluorescence units
[CSME][CpALA]YDFFVW[PRG],% inhibition at T=4H and T=24H FP 4h,[1],85%
same,% inhibition at T=4H and T=24H FP 24h,[1],83%
same,% CD8+ T cells producing IFN-γ peptide concentrations in picomolar 24H 0.5,[3],1%
same,Geometric mean IFN-γ in arbitrary fluorescence units peptide concentrations in picomolar 24H 0.5,[3],69 arbitrary fluorescence units
same,% CD8+ T cells producing IFN-γ peptide concentrations in picomolar 24H 50,[3],5%
same,Geometric mean IFN-γ in arbitrary fluorescence units peptide concentrations in picomolar 24H 50,[3],73 arbitrary fluorescence units
same,% CD8+ T cells producing IFN-γ peptide concentrations in picomolar 24H 5·10^3,[3],27%
same,Geometric mean IFN-γ in arbitrary fluorescence units peptide concentrations in picomolar 24H 5·10^3,[3],147 arbitrary fluorescence units
same,% CD8+ T cells producing IFN-γ peptide concentrations in picomolar 48H 0.5,[3],0%
same,Geometric mean IFN-γ in arbitrary fluorescence units peptide concentrations in picomolar 48H 0.5,[3],58 arbitrary fluorescence units
same,% CD8+ T cells producing IFN-γ peptide concentrations in picomolar 48H 50,[3],1%
same,Geometric mean IFN-γ in arbitrary fluorescence units peptide concentrations in picomolar 48H 50,[3],68 arbitrary fluorescence units
same,% CD8+ T cells producing IFN-γ peptide concentrations in picomolar 48H 5·10^3,[3],14%
same,Geometric mean IFN-γ in arbitrary fluorescence units peptide concentrations in picomolar 48H 5·10^3,[3],105 arbitrary fluorescence units
[CSME][NVA]AGIGILT[PRG],% inhibition at T=4H and T=24H FP 4h,[1],63%
same,% inhibition at T=4H and T=24H FP 24h,[1],60%
same,IC50 Ratio,[1],2.8
[CSME][NVA]YDFFVW[PRG],% inhibition at T=4H and T=24H FP 4h,[1],78%
same,% inhibition at T=4H and T=24H FP 24h,[1],78%
same,% CD8+ T cells producing IFN-γ peptide concentrations in picomolar 24H 0.5,[3],0%
same,Geometric mean IFN-γ in arbitrary fluorescence units peptide concentrations in picomolar 24H 0.5,[3],67 arbitrary fluorescence units
same,% CD8+ T cells producing IFN-γ peptide concentrations in picomolar 24H 50,[3],6%
same,Geometric mean IFN-γ in arbitrary fluorescence units peptide concentrations in picomolar 24H 50,[3],80 arbitrary fluorescence units
same,% CD8+ T cells producing IFN-γ peptide concentrations in picomolar 24H 5·10^3,[3],26%
same,Geometric mean IFN-γ in arbitrary fluorescence units peptide concentrations in picomolar 24H 5·10^3,[3],175 arbitrary fluorescence units
same,% CD8+ T cells producing IFN-γ peptide concentrations in picomolar 48H 0.5,[3],1%
same,Geometric mean IFN-γ in arbitrary fluorescence units peptide concentrations in picomolar 48H 0.5,[3],93 arbitrary fluorescence units
same,% CD8+ T cells producing IFN-γ peptide concentrations in picomolar 48H 50,[3],1%
same,Geometric mean IFN-γ in arbitrary fluorescence units peptide concentrations in picomolar 48H 50,[3],67 arbitrary fluorescence units
same,% CD8+ T cells producing IFN-γ peptide concentrations in picomolar 48H 5·10^3,[3],26%
same,Geometric mean IFN-γ in arbitrary fluorescence units peptide concentrations in picomolar 48H 5·10^3,[3],130 arbitrary fluorescence units
[PHG]AAGIGI[4-FPHE]T[NLE],% inhibition at T=4H and T=24H FP 4h,[1],63%
same,% inhibition at T=4H and T=24H FP 24h,[1],66%
same,IC50 Ratio,[1],6.8
[PHG][NVA]AGIGILT[ALG] ({PHG-NVA}-AGIGILT-{ALG}; reading uncertain; also: printed as [PHG][NVA]AGIGILT[ALG]),% inhibition at T=4H and T=24H FP 4h,[1],65%
same,% inhibition at T=4H and T=24H FP 24h,[1],64%
same,IC50 Ratio,[1],18.9
[am-phg]AAGIGI[4-FPHE]TV,% inhibition at T=4H and T=24H FP 4h,[1],62%
same,% inhibition at T=4H and T=24H FP 24h,[1],59%
same,IC50 Ratio,[1],2.1
[am-phg]LAGIGILT[PRG],% CD8+ T cells producing IFN-γ 0H,[2]; peptide 0.5 pM,0%
same,Geometric mean IFN-γ in arbitrary fluorescence units 0H,[2]; peptide 0.5 pM,94 arbitrary fluorescence units
same,% CD8+ T cells producing IFN-γ 2H,[2]; peptide 0.5 pM,27%
same,Geometric mean IFN-γ in arbitrary fluorescence units 2H,[2]; peptide 0.5 pM,214 arbitrary fluorescence units
same,% CD8+ T cells producing IFN-γ 4H,[2]; peptide 0.5 pM,29%
same,Geometric mean IFN-γ in arbitrary fluorescence units 4H,[2]; peptide 0.5 pM,345 arbitrary fluorescence units
same,% CD8+ T cells producing IFN-γ 24H,[2]; peptide 0.5 pM,15%
same,Geometric mean IFN-γ in arbitrary fluorescence units 24H,[2]; peptide 0.5 pM,159 arbitrary fluorescence units
same,% CD8+ T cells producing IFN-γ 48H,[2]; peptide 0.5 pM,3%
same,Geometric mean IFN-γ in arbitrary fluorescence units 48H,[2]; peptide 0.5 pM,103 arbitrary fluorescence units
same,% CD8+ T cells producing IFN-γ 0H,[2]; peptide 50 pM,0%
same,Geometric mean IFN-γ in arbitrary fluorescence units 0H,[2]; peptide 50 pM,105 arbitrary fluorescence units
same,% CD8+ T cells producing IFN-γ 2H,[2]; peptide 50 pM,22%
same,Geometric mean IFN-γ in arbitrary fluorescence units 2H,[2]; peptide 50 pM,249 arbitrary fluorescence units
same,% CD8+ T cells producing IFN-γ 4H,[2]; peptide 50 pM,31%
same,Geometric mean IFN-γ in arbitrary fluorescence units 4H,[2]; peptide 50 pM,480 arbitrary fluorescence units
same,% CD8+ T cells producing IFN-γ 24H,[2]; peptide 50 pM,28%
same,Geometric mean IFN-γ in arbitrary fluorescence units 24H,[2]; peptide 50 pM,342 arbitrary fluorescence units
same,% CD8+ T cells producing IFN-γ 48H,[2]; peptide 50 pM,18%
same,Geometric mean IFN-γ in arbitrary fluorescence units 48H,[2]; peptide 50 pM,215 arbitrary fluorescence units
